Here are results for eight compounds from ChEMBL document CHEMBL3632472, “Bastadins, brominated-tyrosine derivatives, suppress accumulation of cholesterol ester in macrophages” (Bioorg Med Chem Lett, 2015).

The target of data set [1] is T1, Sterol O-acyltransferase 2 (Homo sapiens) (UniProt O75908).
T1 sequence (whole entry): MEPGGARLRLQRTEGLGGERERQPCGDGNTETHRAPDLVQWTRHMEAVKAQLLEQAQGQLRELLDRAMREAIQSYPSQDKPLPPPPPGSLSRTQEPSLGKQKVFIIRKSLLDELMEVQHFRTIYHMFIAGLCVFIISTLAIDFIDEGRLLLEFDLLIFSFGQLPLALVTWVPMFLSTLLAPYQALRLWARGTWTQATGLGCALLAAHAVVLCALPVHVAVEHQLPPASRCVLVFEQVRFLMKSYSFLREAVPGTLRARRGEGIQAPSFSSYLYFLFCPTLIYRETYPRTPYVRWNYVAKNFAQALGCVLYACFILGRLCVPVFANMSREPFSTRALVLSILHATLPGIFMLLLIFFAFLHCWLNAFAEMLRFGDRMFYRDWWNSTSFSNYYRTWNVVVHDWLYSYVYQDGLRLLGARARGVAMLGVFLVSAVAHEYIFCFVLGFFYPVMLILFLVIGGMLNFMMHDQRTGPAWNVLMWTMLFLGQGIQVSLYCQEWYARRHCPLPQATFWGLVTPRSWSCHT
Briefly: Inhibition of human ACAT2 expressed in CHO cells assessed as inhibition of [3H]cholesterol ester accumulation at 5 uM in presence of 0.1 mM [3H]oleate-conjugated BSA. The class given is cell-based.

Data set [2] can be described thus: Cytotoxicity against human MDM cells at 5 uM after 24 hrs. In kind it is cell-based.
Data set [3] has as its target T2, Sterol O-acyltransferase 1 (Homo sapiens) (UniProt P35610).
T2 sequence (whole entry): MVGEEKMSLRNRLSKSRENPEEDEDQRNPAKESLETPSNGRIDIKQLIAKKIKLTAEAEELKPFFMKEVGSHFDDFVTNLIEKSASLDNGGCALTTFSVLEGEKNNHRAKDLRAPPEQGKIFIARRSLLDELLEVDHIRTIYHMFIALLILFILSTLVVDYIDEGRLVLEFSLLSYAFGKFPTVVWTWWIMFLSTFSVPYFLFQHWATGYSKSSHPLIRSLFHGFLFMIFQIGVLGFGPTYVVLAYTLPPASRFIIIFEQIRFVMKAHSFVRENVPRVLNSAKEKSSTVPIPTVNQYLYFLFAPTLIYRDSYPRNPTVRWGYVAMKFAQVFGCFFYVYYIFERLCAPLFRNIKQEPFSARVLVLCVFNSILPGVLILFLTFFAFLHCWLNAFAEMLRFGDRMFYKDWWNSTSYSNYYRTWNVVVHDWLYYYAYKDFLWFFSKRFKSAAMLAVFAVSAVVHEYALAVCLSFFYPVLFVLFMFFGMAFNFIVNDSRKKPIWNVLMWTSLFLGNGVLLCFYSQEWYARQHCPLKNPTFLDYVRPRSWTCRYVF
As to the kind of experiment: Inhibition of human ACAT1 expressed in CHO cells at 5 uM using [14C]oleoyl-CoA as substrate. In kind it is cell-based.

For data set [4], the target named is T2, Sterol O-acyltransferase 1 (Homo sapiens). As to the kind of experiment: Inhibition of human ACAT1 expressed in CHO cells assessed as inhibition of [3H]cholesterol ester accumulation at 5 uM in presence of 0.1 mM [3H]oleate-conjugated BSA. The class given is cell-based.
In data set [5] the target is T1, Sterol O-acyltransferase 2 (Homo sapiens). As to the kind of experiment: Inhibition of human ACAT2 expressed in CHO cells at 5 uM using [14C]oleoyl-CoA as substrate. In kind it is cell-based.
Data set [6] deals with MDM. Briefly: Inhibition of ACAT in human MDM cells assessed as inhibition of foam cell formation by measuring acetylated LDL-induced [3H]cholesterol ester accumulation at 5 uM after 24 hrs in presence of 0.1 mM [3H]oleate. The class given is cell-based.
Data set [7] concerns MDM. As to the kind of experiment: Effect on triacylglycerol accumulation in human MDM cells at 5 uM after 24 hrs in presence of 50 ug/ml acetylated LDL and 0.1 mM [3H]oleate. The class given is functional, cell-based.
In data set [8] the test system is MDM. Briefly: Effect on phospholipid accumulation in human MDM cells at 5 uM after 24 hrs in presence of 50 ug/ml acetylated LDL and 0.1 mM [3H]oleate. In kind it is functional, cell-based.
The test system of the next data set is CHO. As to the kind of experiment: Cytotoxicity against CHO cells at 5 uM. The class given is cell-based, Cricetulus griseus. The note with it: chinese hamster.
For data set [9], the system named is MDM. Briefly: Effect on SR-A expression in human MDM cells at 5 uM for 24 hrs by western blot analysis. The class given is functional, cell-based. (In general: In western blotting, separated proteins are transferred to a membrane and probed.)
For data set [10], the system named is MDM. As to the kind of experiment: Effect on SR-BI expression in human MDM cells at 5 uM for 24 hrs by western blot analysis. The class given is functional, cell-based.
The test system of data set [11] is MDM. As to the kind of experiment: Effect on CD36 expression in human MDM cells at 5 uM for 24 hrs by western blot analysis. In kind it is functional, cell-based.
In data set [12] the test system is MDM. As to the kind of experiment: Effect on ACAT1 expression in human MDM cells at 5 uM for 24 hrs by western blot analysis. The class given is functional, cell-based.
Data set [13] concerns MDM. Briefly: Inhibition of human ACAT in MDM cells microsomal fraction assessed as inhibition of cholesteryl [14C]oleate formation at 5 uM for 15 mins in presence of [14C]oleoyl-CoA. In kind it is cell-based.
Data set [14] concerns MDM. As to the kind of experiment: Effect on ACAT2 expression in human MDM cells at 5 uM for 24 hrs by western blot analysis. In kind it is functional, cell-based.

The source made the active and inactive calls. The calls are words filed in the database; no cut-off is given here.

The inhibition is how much of the control response was suppressed. In the case of `O=C1NCCc2cc(Br)c(O)c(c2)Oc2c(Br)cc(cc2Br)[C@H](O)CNC(=O)/C(=N/O)Cc2cc(Br)c(O)c(c2)Oc2ccc(cc2Br)C/C1=N\O` [BASTADIN 12], the inhibition result in data set [1], in [3], in data set [4] and in [5] was “inactive” throughout. In data set [2], the Activity entry is “Non-toxic”. Moreover, the inhibition in the data set with MDM [6] stood at 80%.
For `O=C1NCCc2ccc(O)c(c2)Oc2ccc(cc2Br)CCNC(=O)/C(=N/O)Cc2cc(Br)c(O)c(c2)Oc2c(Br)cc(cc2Br)C/C1=N\O`, the inhibition entry in data set [1], in data set [3], in data set [4] and in data set [5] was “inactive” in each case. In addition, the Activity entry in [2] is given as “Non-toxic”. Besides, in the data set with MDM [6], the inhibition was 80%.
With `O=C1NCCc2cc(Br)c(O)c(c2)Oc2ccc(cc2Br)CCNC(=O)/C(=N\O)Cc2cc(Br)c(O)c(c2)Oc2c(Br)cc(cc2Br)C/C1=N/O` [BASTADIN 5], the inhibition result in [1] and in data set [4] was “inactive” throughout. Further, the Activity result in data set [2] was “Non-toxic”. In the data set with MDM [6], the inhibition turned out to be 58%.
As for `O=C(NCCc1ccc(O)c(Br)c1)/C(Cc1ccc(O)c(Br)c1)=N\O` [HEMIBASTADIN 1], the inhibition result in data set [1] and in [4] was “inactive” each time. Also, in data set [2], the Activity entry was “Non-toxic”. Moreover, the inhibition with MDM [6] is 5%.
With `O=C1N/C=C/c2ccc(c(Br)c2)Oc2cc(cc(Br)c2O)CCNC(=O)/C(=N/O)Cc2ccc(c(Br)c2)Oc2cc(cc(Br)c2O)C/C1=N\O` [BASTADIN 7], the inhibition result in data set [1] and in data set [4] was “inactive” in each case. For the same compound, the Activity result in data set [2] was “Non-toxic”. For the same compound, the inhibition in the data set on MDM [6] turned out to be 39%.
With `O=C1N/C=C/c2ccc(c(Br)c2)Oc2cc(cc(Br)c2O)CCNC(=O)/C(=N/O)Cc2cc(Br)c(c(Br)c2)Oc2cc(cc(Br)c2O)C/C1=N\O` [BASTADIN 4], the inhibition entry in data set [1] and in data set [4] was “inactive” each time. Besides, the Activity entry in data set [2] was “Non-toxic”. The inhibition in the data set on MDM [6] was 36%.
With `O=C1NCCc2ccc(O)c(c2)Oc2c(Br)cc(cc2Br)CCNC(=O)/C(=N/O)Cc2cc(Br)c(O)c(c2)Oc2c(Br)cc(cc2Br)C/C1=N\O` [BASTADIN 16], the inhibition stood at 61% in [1]; 61% in data set [3]; 57% in data set [4]; 58% in data set [5]; 88% with MDM [6]. The Activity entry (in [2]; in the data set with CHO) was “Non-toxic” throughout. Besides, the result in the data set on MDM [7] and in the data set on MDM [8] was inactive.
On to `O=C1NCCc2cc(Br)c(O)c(c2)Oc2c(Br)cc(cc2Br)CCNC(=O)/C(=N/O)Cc2cc(Br)c(O)c(c2)Oc2c(Br)cc(cc2Br)C/C1=N\O` [BASTADIN 6], for which the inhibition in data set [1] amounted to 87%; in data set [3] it was 82%; in [4], 86%; in data set [5] it was 89%; in the data set on MDM [6] it was 96%. In addition, the Activity entry (in data set [2]; in the data set on CHO) was “Non-toxic” throughout. Also, the result with MDM [7], in the data set with MDM [9], with MDM [8], in the data set with MDM [10], in the data set on MDM [11] and in the data set on MDM [12] was inactive. Also, the outcome in the data set with MDM [14] was inactive. Besides, the inhibition result in the data set on MDM [13] was “Active”.
